Assay results published in patent publication US6699505B2, “Method of increasing the efficacy of antibiotics by compexing with cyclodextrins” (Massachusetts Institute of Technology, priority 2000, dated 2004).

Tests used:
[1] = system: B. forsythus; assay: Zone of inhibition of PLGA chips in wells of seeded agar plates; type: cell-based; conditions: for zone of inhibition of bacterial growth: PLGA chips 4 mm×5 mm×0.5 mm in wells, B. forsythus agar, anaerobic 37° C., measured daily
Text: (§1) FIG. 1 is a graph charting the change in size of the zone of growth inhibition of the bacterium P. gingivalis over time. The antibiotic being tested (complexed or non-complexed) is applied to a specific point near or within an area of bacterial growth on an agar plate. The bioactive agent diffuses from the application point and causes lysis of already growing bacteria, or inhibition of growth of bacteria within the zone of diffusion. The diameter of bacterial lysis or growth inhibition is a measure of the potency of the bioactive agent. […] A relatively small zone of lysis or growth inhibition indicates a less biologically active agent.
(§2) Increased biological activity of the antibiotic chlorhexidine was tested by placing chips composed of chorhexidine (C) and clorhexidine digluconate (Cg) complexed with hydroxypropyl-β-cyclodextrin (H) or methylated β-cyclodextrin adjacent to a tooth in agar seeded with P. gingivalis or B. forsythus. The agar plates were incubated to allow growth of the bacterium for 12-15 days and the zone of inhibition of bacterial growth around each chip was measured. An increase in biological activity was measured by an increase in the size of the zone of inhibition around the chip containing the complexed antibiotic compared to the size of the zone around the chip containing the uncomplexed antibiotic.
(§3) More particularly, the method used the following steps:
(§4) Mix: 5 g Trypticase Soy Agar
(§5) 6.5 g Brain Heart Infusion
(§6) Autoclave mixture for 15 minutes at 121 degree Celsius.
(§7) Cool to 50 degrees Celsius for 1 hour.
(§8) Add: 12.5 mL defibrinated sheep blood.
(§9) 300 uL N-acetylmuramic acid (100x).
(§10) Prepared B. forsythus and P. gingivalis culture solution with an optical density of 1˜10^9 cells/mL.
(§11) Added 2 mL of bacteria culture into their respective agar solutions.
(§12) Pour 20 mL agar solution into 150 mm diameter petri dishes.
(§13) Place well former into petri dishes.
(§14) Allow agar to harden by cooling to room temperature for 1 hour.
(§15) Place petri dishes in anaerobic chamber at 37° C. in an atmosphere consisting of 80% nitrogen, 10% hydrogen, and 10% carbon dioxide for 2 days.
(§16) Place 4 mm×5 mm×0.5 mm PLGA chips composed of: Cg, C, C/H, Cg/M, M, and H into preformed wells.
(§17) Masses of each component based on 25 wt % of Cg with respect to a 10 mg chip.
(§18) Add MilliQ water into wells to keep chips hydrated.
(§19) Keep petri dishes in anaerobic chamber during entire experiment.
(§20) Measure zones of inhibition daily using electronic calipers from the center of the well.
(§21) Experiments done in triplicate.

[2] = system: P. gingivalis; assay: as above; type: cell-based; conditions: PLGA chips 4 mm×5 mm×0.5 mm in wells, anaerobic 37° C., measured daily
Text: as §1, §2, §3, §4, §5, §6, §7, §8, §9, §10, §11, §12, §13, §14, §15, §16, §17, §18, §19, §20, §21

**Q.** Which “zone of inhibition of bacterial growth” value [1] does the source give for `N=C(NCCCCCCNC(=N)NC(=N)Nc1ccc(Cl)cc1)NC(=N)Nc1ccc(Cl)cc1.O=C(O)[C@H](O)[C@@H](O)[C@H](O)[C@H](O)CO.O=C(O)[C@H](O)[C@@H](O)[C@H](O)[C@H](O)CO` [Cg, Chlorhexidine Digluconate] here?
**A.** statistically similar

**Q.** And the “zone of inhibition of bacterial growth” value [2]?
**A.** statistically similar

**Q.** Which results are given for `[H]/N=C(\N/C(=N/[H])NCCCCCCNC(=N)NC(=N)Nc1ccc(Cl)cc1)Nc1ccc(Cl)cc1` [C, Chlorhexidine]?
**A.** zone of inhibition ([1]; B. forsythus, FIG. 1 right panel): about 40 mm; zone of inhibition of bacterial growth [1]: statistically similar; zone of inhibition of bacterial growth [2]: statistically similar
